According to paper PMC6158709, “Chemical genetic inhibition of DEAD-box proteins using covalent complementarity” (Nucleic Acids Research, 2018):

Key:
DDX3 (132-607) = biological target: T1, DDX3 (132-607) (Homo sapiens, UniProt O00571); assay: coupled ATPase assay, RNA-dependent; type: biochemical; conditions: duplex RNA; four ATP concentrations
T1 construct: gene DDX3X; helicase core, residues 132-607, recombinant, purified as previously described

DDX3 (132-406) = biological target: T2, DDX3 (132-406) (Homo sapiens, UniProt O00571); assay: differential scanning fluorimetry; type: binding; conditions: saturating AMP; 4 μM protein, pH 7.5, 5 mM MgCl2
T2 construct: gene DDX3X; truncated, residues 132-406, recombinant, purified as previously described

HA-eIF4A^ES = biological target: T3, HA-eIF4A^ES (Saccharomyces cerevisiae, UniProt P10081); assay: competition of N-propargylmaleimide labelling, click TAMRA, in gel fluorescence after HA immunoprecipitation; type: biochemical; conditions: covalent; yeast lysate, 10 μM AMP-acrylate followed by 10 μM NPM
T3 construct: gene TIF1; HA-tagged ES mutant in yeast lysate, immunoprecipitated after labelling

Dbp2 = biological target: T4, Dbp2 (Saccharomyces cerevisiae, UniProt P24783, S161C); assay: RNA duplex unwinding assay; type: biochemical; conditions: covalent; 0.5 μM enzyme, 2 mM ATP/MgCl2, pH 7.5, 5 min pre-incubation
T4 construct: full-length, expressed in E. coli BL21 (DE3) as 6xHis-SUMO fusion, incubated with SUMO protease
T4 sequence (P24783 whole entry S161C, the tested form may be a part): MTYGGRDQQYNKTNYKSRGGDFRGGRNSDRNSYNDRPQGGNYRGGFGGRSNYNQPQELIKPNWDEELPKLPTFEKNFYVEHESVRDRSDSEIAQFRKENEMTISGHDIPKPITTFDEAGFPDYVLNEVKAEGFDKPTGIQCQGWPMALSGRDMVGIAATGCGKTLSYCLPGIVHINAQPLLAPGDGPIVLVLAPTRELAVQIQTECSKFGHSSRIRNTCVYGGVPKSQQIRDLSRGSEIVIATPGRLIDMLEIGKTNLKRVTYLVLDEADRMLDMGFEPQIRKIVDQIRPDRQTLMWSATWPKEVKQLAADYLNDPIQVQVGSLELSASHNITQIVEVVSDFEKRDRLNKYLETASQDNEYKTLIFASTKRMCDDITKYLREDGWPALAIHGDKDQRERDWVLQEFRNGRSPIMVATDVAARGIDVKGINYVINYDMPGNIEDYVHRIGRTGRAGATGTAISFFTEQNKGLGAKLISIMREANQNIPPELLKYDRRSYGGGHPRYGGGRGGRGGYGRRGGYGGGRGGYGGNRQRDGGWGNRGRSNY

T3 sequence (P10081 2-395): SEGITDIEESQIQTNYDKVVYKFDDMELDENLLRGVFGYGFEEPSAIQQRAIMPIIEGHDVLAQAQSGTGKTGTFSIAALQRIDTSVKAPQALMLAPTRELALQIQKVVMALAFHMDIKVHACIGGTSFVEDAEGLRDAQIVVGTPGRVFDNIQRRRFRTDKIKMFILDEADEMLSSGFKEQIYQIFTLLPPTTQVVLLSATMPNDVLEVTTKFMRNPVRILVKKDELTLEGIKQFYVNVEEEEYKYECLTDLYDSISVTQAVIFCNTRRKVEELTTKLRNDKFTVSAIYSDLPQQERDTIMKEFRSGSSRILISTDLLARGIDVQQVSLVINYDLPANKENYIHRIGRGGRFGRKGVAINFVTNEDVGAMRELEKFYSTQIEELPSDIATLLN
T1 sequence (O00571 132-607): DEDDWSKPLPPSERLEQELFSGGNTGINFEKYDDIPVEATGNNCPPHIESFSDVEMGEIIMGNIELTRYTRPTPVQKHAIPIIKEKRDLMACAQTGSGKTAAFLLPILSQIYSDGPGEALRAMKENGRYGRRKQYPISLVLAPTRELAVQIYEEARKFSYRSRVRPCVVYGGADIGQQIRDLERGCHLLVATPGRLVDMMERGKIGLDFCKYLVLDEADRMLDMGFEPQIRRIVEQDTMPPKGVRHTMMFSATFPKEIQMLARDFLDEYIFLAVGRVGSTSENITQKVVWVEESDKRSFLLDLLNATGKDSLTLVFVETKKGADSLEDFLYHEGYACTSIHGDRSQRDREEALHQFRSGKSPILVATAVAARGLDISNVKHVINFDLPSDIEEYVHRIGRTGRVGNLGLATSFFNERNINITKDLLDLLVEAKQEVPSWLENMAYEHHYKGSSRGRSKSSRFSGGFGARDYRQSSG
T2 sequence (O00571 132-406): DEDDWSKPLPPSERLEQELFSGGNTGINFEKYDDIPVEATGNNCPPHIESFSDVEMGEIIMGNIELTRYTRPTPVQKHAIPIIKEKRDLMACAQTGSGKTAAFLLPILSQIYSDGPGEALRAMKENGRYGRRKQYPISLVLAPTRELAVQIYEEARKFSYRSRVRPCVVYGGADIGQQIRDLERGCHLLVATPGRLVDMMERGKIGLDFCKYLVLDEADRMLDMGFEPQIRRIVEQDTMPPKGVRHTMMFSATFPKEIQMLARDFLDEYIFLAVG

Nc1ncnc2c1ncn2[C@@H]1O[C@H](COP(=O)(O)OP(=O)(O)OP(=O)(O)O)[C@@H](O)[C@H]1O [ATP]
coupled ATPase assay, RNA-dependent (DDX3 (132-607)): both DDX3^WT and DDX3^ES hydrolyzed ATP in the presence of duplex RNA

Nc1ncnc2c1ncn2[C@@H]1O[C@H](COP(=O)(O)O)[C@@H](O)[C@H]1O [AMP]
Tm (DDX3 (132-406)): Saturating concentrations of AMP stabilizes DDX3^WT and DDX3^ES to the same extent

C=CC(=O)OP(=O)(O)OC[C@H]1O[C@@H](n2cnc3c(N)ncnc32)[C@H](O)[C@@H]1O [AMP-acrylate]
NPM labeling (HA-eIF4A^ES): labeling of HA-eIF4A^ES by NPM is competed by AMP-acrylate treatment | fraction of RNA duplex unwound (Dbp2): duplex unwinding by ES Dbp2 (S161C) is reduced by AMP-acrylate
